Assay: solubility of the photosensitizer in triglycerides
Type: physicochemical
Details: the main component of adipose cells

## Oc1cccc(-c2c3nc(c(-c4cccc(O)c4)c4ccc([nH]4)c(-c4cccc(O)c4)c4nc(c(-c5cccc(O)c5)c5ccc2[nH]5)CC4)C=C3)c1 [mTHPC, temoporfin]
  solubility level in the triglycerides: low solubility level

Reference: US20070154538A1, “Removal of fat cells by PDT” (CeramOptec GmbH, priority 2005, published 2007)
